The subject of one experiment is MMP-2. The experiment can be described thus: Substrate phage display with NGS: relative probability (RP) of P3-P1' tetramer clusters. In kind it is biochemical, human. Conditions: for avg_RP: MMP2 - no binning; for corresponding MMP2 relative probability (RP): MMP9 tetramers from unique substrates, RP of same tetramer for MMP2; for relative probability (RP) of matching tetramer: P3-P1' tetramer matching the MS detected MMP2 cleavage sequence, RP_above_4.5; for normalized RP - MMP2: normalized RP of matching tetramer.

The next experiment relates to MMP-9. The description is as above. Format: biochemical, human. The settings on record: for MMP9 relative probability (RP): MMP9 tetramers from unique substrates, unrounded values; for normalized RP - MMP9: normalized RP of matching tetramer.
Setting [1] is: RP of the P3-P1' tetramer cluster contained in the hexamer, 200 nM MMP-2, 2 h, 37°C, two rounds of selection.
Setting [2] is: MMP9, RP of the P3-P1' tetramer contained in the hexamer substrate (substrate phage display, NGS).
The mark [3] stands for this setting: average relative probability of the tetramer, redundant tetramers averaged out.
The mark [4] stands for this setting: tetramer projected onto MMP-9 cleavage sites determined by Prudova et al. (2010).
Where [5] appears, read: RP of matching tetramer, common MMP2-9 selectome.
Where [6] appears, read: MMP9, RP of the P3-P1' tetramer matching the MS detected cleavage, RP above 4.7, substrate phage display with NGS.
Setting [7] is: RP of matching tetramer, common MMP2-9 selectome, RP above KL threshold.
[8] abbreviates: RP of the P3-P1' tetramer, MMP2 substrate phage display/NGS, tetramers of physiologic MEROPS substrates common to MMP2 and MMP9.
The mark [9] stands for this setting: RP of the P3-P1' tetramer, MMP9 substrate phage display/NGS, tetramers of physiologic MEROPS substrates common to MMP2 and MMP9.
Setting [10] is: RP of matching tetramer, unique part of MMP2 selectome, RP above KL threshold.
Setting [11] is: RP of matching tetramer, unique part of MMP2 selectome.
Setting [12] is: MMP2, RP of matching P3-P1' tetramer, common set of MMP2-9 selectome, RP above KL threshold.
Setting [13] is: MMP9, RP of matching P3-P1' tetramer, common set of MMP2-9 selectome.
[14] abbreviates: RP according to MMP2, P3-P1' tetramer of unique physiologic MMP2 substrates from MEROPS.

For VEPLKF, the “relative probability (RP)” value is given as 11.7082 in the experiment with MMP-2 (setting [1]) and 27.4837 in the experiment with MMP-9 (setting [2]).

With LAEL [P3-P1' tetramer cluster], the avg_RP in the experiment on MMP-2 (setting [3]) was 27.078. Moreover, the “relative probability (RP)” value in the experiment with MMP-9 (setting [4]) stood at 0.44.

With PMALMD, the entries for the “relative probability (RP)” value in the experiment with MMP-2 (setting [1]) and in the experiment on MMP-9 (setting [2]) were 34.1737 and 48.9468, respectively.

In the case of ETPRPW, the results for the “relative probability (RP)” value with MMP-2 (setting [1]) and in the experiment with MMP-9 (setting [2]) were 32.1109 and 41.1124, respectively.

In the case of PVNV, the “relative probability (RP) (acc.to MMP2)” value with MMP-2 (setting [5]) was found to be 19.63. Moreover, the “relative probability (RP)” value in the experiment on MMP-9 (setting [6]) is listed as 24.66. Further, the “relative probability (RP) (acc.to MMP9)” value in the experiment with MMP-9 (setting [7]) stood at 24.66.

Regarding PFLI, the “corresponding MMP2 relative probability (RP)” value with MMP-2 worked out at 22.6532. Besides, the “MMP9 relative probability (RP)” value in the experiment on MMP-9 is reported as 0.05937.

Turning to PVSL, the “relative probability (RP) (acc.to MMP2)” value in the experiment on MMP-2 (setting [8]) was 32.5. Besides, the “relative probability (RP) (acc.to MMP9)” value in the experiment on MMP-9 (setting [9]) is reported as 42.36.

For the substance QQPQAL, the “relative probability (RP)” value in the experiment on MMP-2 (setting [1]) came to 34.4508; in the experiment with MMP-9 (setting [2]), 48.457.

With VTPR, in the experiment with MMP-2 (setting [8]), the “relative probability (RP) (acc.to MMP2)” value amounted to 0.18. Also, in the experiment on MMP-9 (setting [9]), the “relative probability (RP) (acc.to MMP9)” value is 0.46.

Take SPPAAI: the “relative probability (RP)” value in the experiment on MMP-2 (setting [1]) was 32.0972; in the experiment with MMP-9 (setting [2]), 46.1642.

As for PKGA, the “relative probability (RP) (acc.to MMP2)” value in the experiment on MMP-2 (setting [8]) was found to be 0. In the experiment on MMP-9 (setting [9]), the “relative probability (RP) (acc.to MMP9)” value is listed as 1.22.

On to QAQL, for which the “relative probability (RP) of matching tetramer” value with MMP-2 stood at 6.16. Moreover, in the experiment with MMP-2 (setting [10]), the “relative probability (RP) (acc.to MMP2)” value is recorded as 6.16. In addition, the “normalized RP - MMP2” value in the experiment with MMP-2 (unique part of MMP2 selectome) was found to be 0.1687. Moreover, the “relative probability (RP) (acc.to MMP9)” value in the experiment with MMP-9 (setting [11]) was determined as 0.06. Moreover, the “normalized RP - MMP9” value in the experiment on MMP-9 (unique part of MMP2 selectome) is listed as 0.001145.

In the experiment with MMP-2 (setting [3]), GRGL displayed an avg_RP of 4.9808. The “relative probability (RP) (acc.to MMP2)” value with MMP-2 (setting [12]) and in the experiment on MMP-2 (setting [5]) was 4.98 each time. Moreover, the “relative probability (RP) of matching tetramer” value with MMP-2 is listed as 4.98. The “relative probability (RP) (acc.to MMP9)” value with MMP-9 (setting [13]) and with MMP-9 (setting [7]) was 11.45 each time. Moreover, the “relative probability (RP)” value in the experiment with MMP-9 (setting [6]) turned out to be 11.45.

Take TLGL: the “relative probability (RP) (acc.to MMP2)” value in the experiment on MMP-2 (setting [12]) and in the experiment on MMP-2 (setting [5]) was 6 throughout. Besides, the “relative probability (RP) of matching tetramer” value with MMP-2 is reported as 6. Moreover, the “relative probability (RP) (acc.to MMP9)” value with MMP-9 (setting [13]) and in the experiment on MMP-9 (setting [7]) was 9.79 throughout. The “relative probability (RP)” value in the experiment with MMP-9 (setting [6]) came out at 9.79.

Turning to PRFL, in the experiment with MMP-2 (setting [3]), the avg_RP was 28.4443. The “relative probability (RP) (acc.to MMP2)” value in the experiment with MMP-2 (setting [12]) and in the experiment with MMP-2 (setting [5]) was 28.44 in each case. In addition, the “relative probability (RP) of matching tetramer” value in the experiment on MMP-2 stood at 28.44. The “relative probability (RP) (acc.to MMP9)” value in the experiment on MMP-9 (setting [13]) and in the experiment with MMP-9 (setting [7]) was 42.45 throughout. Moreover, the “relative probability (RP)” value in the experiment with MMP-9 (setting [6]) is on record as 42.45.

As to AMFL, in the experiment with MMP-2, the “corresponding MMP2 relative probability (RP)” value is 15.1166. Further, the “MMP9 relative probability (RP)” value in the experiment with MMP-9 came out at 1.089.

Regarding APGF, in the experiment on MMP-2 (setting [8]), the “relative probability (RP) (acc.to MMP2)” value was 0.64. For the same substance, the “relative probability (RP) (acc.to MMP9)” value in the experiment on MMP-9 (setting [9]) stood at 0.56.

Turning to PHNILS, the results for the “relative probability (RP)” value with MMP-2 (setting [1]) and in the experiment with MMP-9 (setting [2]) were 24.3767 and 42.0557, respectively.

With PQLL, in the experiment with MMP-2 (average relative probability (RP) of the P3-P1' tetramer, redundant tetramers have been averaged out), the avg_RP turned out to be 22.6078. The “relative probability (RP) (acc.to MMP2)” value in the experiment on MMP-2 (setting [5]) came out at 22.61. The “relative probability (RP)” value in the experiment with MMP-9 (setting [6]) is listed as 32.66. Besides, the “relative probability (RP) (acc.to MMP9)” value in the experiment with MMP-9 (setting [7]) is given as 32.66.

Turning to PAVM, in the experiment on MMP-2 (MMP2 tetramers from unique substrates, unrounded values), the “MMP2 relative probability (RP)” value worked out at 17.6491. Besides, in the experiment on MMP-2 (setting [14]), the “Relative probability (RP) rank” value was determined as 2339 and the “relative probability (RP)” value is reported as 17.65. The “corresponding MMP9 relative probability (RP)” value with MMP-9 (MMP2 tetramers from unique substrates, RP of same tetramer for MMP9) was determined as 4.1214.

As to PEQL, the “relative probability (RP) (acc.to MMP2)” value with MMP-2 (setting [12]) and in the experiment with MMP-2 (setting [5]) was 12.46 in each case. Moreover, the “relative probability (RP) of matching tetramer” value in the experiment with MMP-2 is recorded as 12.46. The “relative probability (RP) (acc.to MMP9)” value in the experiment on MMP-9 (setting [13]) and with MMP-9 (setting [7]) was 23.26 each time. The “relative probability (RP)” value with MMP-9 (setting [6]) was found to be 23.26.

Take IGGL [P3-P1' tetramer cluster]: in the experiment on MMP-2, the “relative probability (RP) of matching tetramer” value was found to be 26.48. Also, in the experiment with MMP-2 (setting [10]), the “relative probability (RP) (acc.to MMP2)” value is recorded as 26.48. For the same substance, the “normalized RP - MMP2” value with MMP-2 (unique part of MMP2 selectome) turned out to be 0.7251. The “relative probability (RP) (acc.to MMP9)” value in the experiment with MMP-9 (setting [11]) is reported as 4.4. The “normalized RP - MMP9” value with MMP-9 (unique part of MMP2 selectome) is 0.084. In addition, the “relative probability (RP)” value in the experiment on MMP-9 (setting [4]) amounted to 4.4.

Take PEAQ: in the experiment with MMP-2, the “corresponding MMP2 relative probability (RP)” value is 6.464. In addition, the “MMP9 relative probability (RP)” value in the experiment on MMP-9 is given as 2.403.

Regarding PPPL, the “relative probability (RP) (acc.to MMP2)” value with MMP-2 (setting [12]) and in the experiment on MMP-2 (setting [5]) was 13.03 throughout. In the experiment with MMP-2, the “relative probability (RP) of matching tetramer” value is given as 13.03. For the same substance, the “relative probability (RP) (acc.to MMP9)” value in the experiment with MMP-9 (setting [13]) and in the experiment with MMP-9 (setting [7]) was 14.18 in each case. Further, the “relative probability (RP)” value in the experiment on MMP-9 (setting [6]) is on record as 14.18.

Take VSALSS: the “relative probability (RP)” value is on record as 32.3417 with MMP-2 (setting [1]) and 28.865 with MMP-9 (setting [2]).

These data come from paper PMC7932537, “Quantitative profiling of protease specificity” (PLoS Computational Biology, 2021).
